In the NIST ThermoML archive (doi:10.1021/je800637t):
Numbers after ± are expanded uncertainties.

Key:
[1] = mn = molality of the nth substance listed, in mol/kg; details: 100.8 kPa, Liquid, m2 = 0; for viscosity: Cone and plate viscometry; for electrical conductivity: Kyoto model CM-117 conductivity meter
[2] = refractive index (Na D-line) (dimensionless); mn = molality of the nth substance listed, in mol/kg; details: 100.8 kPa, Liquid, Standard Abbe refractometry, m2 = 0

O [water] + O=[N+]([O-])[O-].[K+]
viscosity ([1]; 298.15 K): 0.891 ± 0.009 mPa·s
electrical conductivity ([1]; 298.15 K): 0.000125 ± 2e-06 S/m
viscosity ([1]; 313.15 K): 0.653 ± 0.007 mPa·s
electrical conductivity ([1]; 313.15 K): 0.000164 ± 2e-06 S/m
mass density ([1]; 313.15 K, Vibrating tube method): 992.15 ± 0.05 kg/m3
refractive index ([2]; 298.15 K): 1.33277 ± 0.0004
refractive index ([2]; 313.15 K): 1.3306 ± 0.0004
